Results taken from patent US20260132165A1, “MODIFIED NUCLEOSIDE ANALOGUE AND USE THEREOF, AND NUCLEOSIDE ANALOGUE-CONTAINING DOUBLE-STRANDED OLIGONUCLEOTIDE AND USE THEREOF” (RIGERNA THERAPEUTICS (BEIJING) CO., LTD., priority 2023, published 2026).

What was measured:
target gene SOD1 [1] = test: Test Example 10: inhibitory activity on SOD1 in mouse adipose and heart tissues by different routes of administration; assay type: in vivo, C57BL/6j mice; settings: D14; for inhibitory activity by different routes of administration: subcutaneous vs tail vein injection, same dose 5 mg/kg; for Subcutaneous % Mean value of inhibition rate: subcutaneous administration 5 mg/kg; for Intravenous % Mean value of inhibition rate: tail vein injection 5 mg/kg
Method: (§1) RNA extraction: the above tissue samples were taken out from the RNAlater, and smashed for 60 s in Tissuelyser type II full-automatic tissue homogenizer, and total RNAs of various tissue samples were extracted using the full-automatic nucleic acid extraction instrument and the nucleic acid extraction kit from Zhejiang Hanwei Science and Technology Co. Ltd. according to methods described in instructions.
(§2) Reverse transcription reaction: 1 μg of the extracted total RNAs of the tissue samples were taken, and configured into 20 μL of reverse transcription system according to a method described in kit instructions by using a reverse transcription kit (Reverse Transcription System, A3500) from Promega Corporation and selecting Oligo (dT)15 reverse transcription primers, and the reverse transcription reaction was completed. After the reaction was ended, 80 μL of RNase-Free water was added into the reverse transcription system to provide cDNA solution for Real-time PCR detection.
(§3) Real-time PCR detection: 20 μL of Real-time PCR reaction system per PCR detection well was configured according to a method described in kit instructions using SYBR™ Select Master Mix (Catalog number: 4472908) reagent from ABI company. Each detection system contained 5 μL of cDNA template obtained from the above reverse transcription reaction, 10 μL of SYBR™ Select Master Mix, 0.5 μL of 10 μM upstream primers, 0.5 μL of 10 μM downstream primers, and 4 μL of RNase-Free H2O. The configured reaction system was subjected to Real-time PCR amplification on ABI StepOnePlus PCR instrument by a three-step method, wherein an amplification procedure was pre-denaturation at 95° C. for 10 min, then denaturation at 95° C. for 30 s, annealing at 60° C. for 30 s, and extension at 72° C. for 30 s; and processes of denaturation, annealing, and extension were repeated for 40 cycles. Gene expression differences were calculated by the ΔΔCt method after completion of the procedure.
(§4) In the real-time fluorescence quantitative PCR method, relative quantitative calculation of remaining expression level and inhibition rate of gene mRNA of interest in various test groups was performed by the ΔΔCt method, and the calculation method is as follows:
(§5) The present test example evaluated, by an evaluation method for inhibitory activity on a target gene in mice, the inhibitory activity of siRNA sequence RZ899090 with the sense strand with the NM073 conjugation at Position 4 on the target gene SOD1 of interest in mice.
6-8 Week-old C57BL/6j mice were randomly grouped by body weight, 5 per group, 4 groups in total. Mice in one of the groups were dosed with the above siRNA conjugate by tail vein injection, with an administration dose of 5 mg/kg, and an administration volume of 150 μL. One group was dosed with the above siRNA conjugate by subcutaneous administration, with an administration dose of 5 mg/kg, and an administration volume of 5 ml/kg. The other two groups were PBS control groups, and were respectively administered with the same volume of siRNA conjugate-free PBS solution by tail vein injection and subcutaneous administration. The day of administration was recorded as D0, and the mice were sacrificed on D14 after administration. Paragonadal fat and heart tissues were respectively taken and stored in the RNAlater. RNA extraction, reverse transcription, and real-time fluorescence quantitative detection were performed on various tissues according to the above method, and gene expression differences were calculated by the above ΔΔCt method.

target gene SOD1 [2] = test: Test Example 11: inhibitory activity at different administration doses on SOD1 in mouse adipose and heart tissues; assay type: in vivo, C57BL/6j mice; settings: D14; for 0.5 mg/kg % Mean value of inhibition rate: tail vein injection 0.5 mg/kg; for 2 mg/kg % Mean value of inhibition rate: tail vein injection 2 mg/kg; for 5 mg/kg % Mean value of inhibition rate: tail vein injection 5 mg/kg; for dose dependency of inhibitory activity: 0.5, 2, 5 mg/kg tail vein
Method: as §1, §2, §3, §4
as §5, with “4 at different administration doses” for “4”
6-8 Week-old C57BL/6j mice were randomly grouped by body weight, 5 per group, 4 groups in total. Mice were administered with the above siRNA conjugate by tail vein injection, wherein mice in one group were administered with the above siRNA conjugate at an administration dose of 5 mg/kg, mice in one group were administered with the above siRNA conjugate at an administration dose of 2 mg/kg, and one group was administered with the above siRNA conjugate at an administration dose of 0.5 mg/kg, all administration volumes being 150 μL. The remaining group acted as PBS control group and was administered with the same volume of siRNA conjugate-free PBS solution. The day of administration was recorded as D0, and the mice were sacrificed on D14 after administration. Paragonadal fat and heart tissues were respectively taken and stored in the RNAlater. RNA extraction, reverse transcription, and real-time fluorescence quantitative detection were performed on various tissues according to the above method, and gene expression differences were calculated by the above ΔΔCt method.

target gene SOD1 [3] = test: Test Example 12: inhibitory activity of lipid conjugated siRNA sequence on SOD1 in mouse eyes (intravitreal administration); assay type: in vivo, C57BL/6J mice; settings: D14
Method: as §1, §2, §3, §4
as §5, with “RZ899091” for “RZ899090”, “NM074” for “NM073”, “4 and siRNA reference sequence RX899121 without vector conjugation” for “4”
6-8 Week-old C57BL/6J mice were randomly grouped by body weight, 5 in each group and 3 groups in total. Mice in each group were administered with the above siRNA conjugate by intravitreal administration to right eyes of the mice, with an administration dose of 7.5 μg per mouse, and an administration volume of 2 μL. PBS control group was administered with the same volume of siRNA conjugate-free PBS solution. The day of administration was recorded as D0, and the mice were sacrificed at D14 after administration. Administration-side ocular retina, choroid, cornea, sclera and other tissues were respectively taken and stored in the RNAlater. RNA extraction, reverse transcription, and real-time fluorescence quantitative detection were performed on various tissues according to the above method, and gene expression differences were calculated by the above ΔΔCt method.

[4] = mouse adipose tissues (paragonadal fat)

Row | Substance | inhibitory activity by different routes of administration (target gene SOD1 [1]; adipose tissues) | inhibitory activity by different routes of administration (target gene SOD1 [1]; heart) | Subcutaneous % Mean value of inhibition rate (target gene SOD1 [1]; [4]) [%] | Intravenous % Mean value of inhibition rate (target gene SOD1 [1]; [4]) [%] | Subcutaneous % Mean value of inhibition rate (target gene SOD1 [1]; mouse heart tissues) [%] | Intravenous % Mean value of inhibition rate (target gene SOD1 [1]; mouse heart tissues) [%] | 0.5 mg/kg % Mean value of inhibition rate (target gene SOD1 [2]; [4]) [%] | 2 mg/kg % Mean value of inhibition rate (target gene SOD1 [2]; [4]) [%] | 5 mg/kg % Mean value of inhibition rate (target gene SOD1 [2]; [4]) [%] | dose dependency of inhibitory activity (target gene SOD1 [2]; mouse adipose tissues) | dose dependency of inhibitory activity (target gene SOD1 [2]; mouse heart tissues) | 0.5 mg/kg % Mean value of inhibition rate (target gene SOD1 [2]; mouse heart tissues) [%] | 2 mg/kg % Mean value of inhibition rate (target gene SOD1 [2]; mouse heart tissues) [%] | 5 mg/kg % Mean value of inhibition rate (target gene SOD1 [2]; mouse heart tissues) [%] | Choroid % Mean value of inhibition rate (target gene SOD1 [3]; choroid, intravitreal, right eye, 7.5 μg per mouse) [%] | Cornea and sclera % Mean value of inhibition rate (target gene SOD1 [3]; cornea and sclera, intravitreal, right eye, 7.5 μg per mouse) [%] | Kidney % Mean value of inhibition rate (target gene SOD1 [3]; kidney, intravitreal, right eye, 7.5 μg per mouse) [%] | Liver % Mean value of inhibition rate (target gene SOD1 [3]; liver, intravitreal, right eye, 7.5 μg per mouse) [%] | inhibitory activity compared with the reference sequence RX899121 without vector (target gene SOD1 [3]; mouse retina and choroid, intravitreal 7.5 μg per mouse) | Retina % Mean value of inhibition rate (target gene SOD1 [3]; retina, intravitreal, right eye, 7.5 μg per mouse) [%]
1 | RZ899090: siRNA sequence with the sense strand with the NM073 (C18) conjugation at Position 4; SEQ ID NO: 15 / 23 (sense UUUNAAUCCUCACUCUAAA; antisense UUUAGAGUGAGGAUUAAAAUG; NM073 (C18) conjugate at sense position 4; modified_base 1..2 OTHER; 2'-methoxy and 5'-thiophosphate modified nucleotides; modified_base 3 OTHER; 2'-methoxy modified nucleotide; modified_base 4 OTHER; n is the nucleotide analog NM073 as described in the disclosure.; modified_base 5..6 OTHER; 2'-methoxy modified nucleotides; modified_base 7..10 OTHER; 2'-fluoro modified nucleotides; modified_base 11..19 OTHER; modified_base 1 OTHER; 2'-methoxy and 5'-thiovinylphosphonate modified nucleotide; modified_base 2 OTHER; 2'-fluoro and 5'-thiophosphate modified nucleotide; modified_base 3..5 OTHER; …) | comparable inhibitory activity in the fat | comparable inhibitory activity in heart | 77.05 | 80.33 | 73.71 | 76.57 | 45.65 | 70.90 | 83.09 | distinct dose dependency | distinct dose dependency | 30.45 | 62.38 | 79.04 | – | – | – | – | – | –
2 | RZ899091: siRNA sequence with the sense strand with the NM074 (C20) conjugation at Position 4; SEQ ID NO: 16 / 23 (sense UUUNAAUCCUCACUCUAAA; antisense UUUAGAGUGAGGAUUAAAAUG; NM074 (C20) conjugate at sense position 4; modified_base 1..2 OTHER; 2'-methoxy and 5'-thiophosphate modified nucleotides; modified_base 3 OTHER; 2'-methoxy modified nucleotide; modified_base 4 OTHER; n is the synthetic nucleotide analog NM074 as described in the disclosure.; modified_base 5..6 OTHER; 2'-methoxy modified nucleotides; modified_base 7..10 OTHER; 2'-fluoro modified nucleotides; modified_base 11..19 OTHER; 2'-methoxy modified ; modified_base 1 OTHER; 2'-methoxy and 5'-thiovinylphosphonate modified nucleotide; modified_base 2 OTHER; 2'-fluoro and 5'-thiophosphate modified …) | – | – | – | – | – | – | – | – | – | – | – | – | – | – | 33.54 | −2.05 | 6.51 | −2.05 | superior inhibitory activity | 54.98
